Results as given in patent US5576208A, “Antisense oligonucleotide inhibition of the RAS gene” (priority 1994, dated 1996).
“Also recorded” adds a separate entry of the source.

How the values were obtained:
[1] = test system: 25-base oligoribonucleotide of activated H-ras mRNA, mammalian RNase H; assay: RNase H cleavage in vitro with HeLa nuclear extracts; type: biochemical, human; settings: HeLa nuclear extracts as source of RNase H
Method: RNase H assays were performed using a chemically synthesized 25-base oligoribonucleotide corresponding to bases +23 to +47 of activated (codon 12, G→U) H-ras mRNA. The 5' end-labeled RNA was used at a concentration of 20 nM and incubated with a 10-fold molar excess of antisense oligonucleotide in a reaction containing 20 mM tris-Cl, pH 7.5, 100 mM KCl, 10 mM MgCl2, 1 mM dithiothreitol, 10 μg tRNA and 4 U RNasin in a final volume of 10 μl. The reaction components were preannealed at 37° C. for 15 Minutes then allowed to cool slowly to room temperature. HeLa cell nuclear extracts were used as a source of mammalian RNase H. Reactions were initiated by addition of 2 μg of nuclear extract (5 μl) and reactions were allowed to proceed for 10 Minutes at 37° C. Reactions were stopped by phenol/chloroform extraction and RNA components were precipitated with ethanol. Equal CPMs were loaded on a 20% polyacrylamide gel containing 7M urea and RNA cleavage products were resolved and visualized by electrophoresis followed by autoradiography. Quantitation of cleavage products was performed using a Molecular Dynamics Densitometer.

[2] = test system: 47-mer H-ras RNA hairpin target; assay: Gel shift assay
Method: The structured ras target transcript, a 47-nucleotide hairpin containing the mutated codon 12, was prepared and mapped as described in Lima et al., Biochemistry 1991, 31, 12055-12061. Hybridization reactions were prepared in 20 μl containing 100 mM sodium, 10 mM phosphate, 0.1 mM EDTA, 100 CPM of T7-generated RNA (approximately 10 pM), and antisense oligonucleotide ranging in concentration from 1 pM to 10 μM. Reactions were incubated 24 hours at 37° C. Following hybridization, loading buffer was added to the reactions and reaction products were resolved on 20% native polyacrylamide gels, prepared using 45 mM tris-borate and 1 mM MgCl2 (TBM). Electrophoresis was carried out at 10° C. and gels were quantitated using a Molecular Dynamics Phosphorimager.

[3] = test system: full length H-ras mRNA (activated, codon 12); assay: ras transactivation reporter gene system; settings: Table 5, antisense activity against H-ras; listed as Deoxy
[4] = test system: normal (wild type) H-ras RNA, ras-luciferase fusion reporter in HeLa cells; assay: ras-luciferase reporter gene assay, normal form; settings: read-out: IC50, inhibition of ras-luciferase activity; normal (unmutated) ras-luciferase, dose-response
[5] = test system: ras mRNA in HeLa cells (wild-type H-ras codon 12); assay: Northern blot analysis of ras expression in HeLa cells; type: cell-based, human
Method: HeLa cells were maintained as monolayers on 6-well plates in Dulbecco's Modified Eagle's medium (DMEM) supplemented with 10% fetal bovine serum and 100 U/ml penicillin. Treatment with oligonucleotide and isolation of RNA were essentially as described above for T24 cells.
Northern hybridization: 10 μg of each RNA was electrophoresed on a 1.2% agarose/formaldehyde gel and transferred overnight to GeneBind 45 nylon membrane (Pharmacia LKB, Piscataway, N.J.) using standard methods. […] RNA was UV-crosslinked to the membrane. Double-stranded ^32 P-labeled probes were synthesized using the Prime a Gene labeling kit (Promega, Madison Wis.). The ras probe was a SalI-NheI fragment of a cDNA clone of the activated (mutant) H-ras mRNA having a GGC-to-GTC mutation at codon-12. The control probe was G3PDH. Blots were prehybridized for 15 Minutes at 68° C. with the QuickHyb hybridization solution (Stratagene, La Jolla, Calif.). The heat-denatured radioactive probe (2.5×10^6 counts/2 ml hybridization solution) mixed with 100 μl of 10 Mg/ml salmon sperm DNA was added and the membrane was hybridized for 1 hour at 68° C. The blots were washed twice for 15 minutes at room temperature in 2× SSC/0.1% SDS and once for 30 minutes at 60° C. with 0.1XSSC/0.1%SDS. Blots were autoradiographed and the intensity of signal was quantitated using an ImageQuant PhosphorImager (Molecular Dynamics, Sunnyvale, Calif.). […]

[6] = test system: ras mRNA in T24 cells (activated codon 12); assay: Northern blot analysis of ras expression in T24 cells; type: cell-based, human; set-up: inhibition of ras mRNA: concentration or dose not given beside the values
Method: The human urinary bladder cancer cell line T24 was obtained from the American Type Culture Collection (Rockville Md.). Cells were grown in McCoy's 5 A medium with L-glutamine (Gibco BRL, Gaithersburg Md.), supplemented with 10% heat-inactivated fetal calf serum and 50 U/ml each of penicillin and streptomycin. Cells were seeded on 100 Mm plates. When they reached 70% confluency, they were treated with oligonucleotide. Plates were washed with 10 ml prewarmed PBS and 5 ml of Opti-MEM reduced-serum medium containing 2.5 μl DOTMA. Oligonucleotide was then added to the desired concentration. After 4 hours of treatment, the medium was replaced with McCoy's medium. Cells were harvested 48 hours after oligonucleotide treatment and RNA was isolated using a standard CsCl purification method.
Northern hybridization: 10 μg of each RNA was electrophoresed on a 1.2% agarose/formaldehyde gel and transferred overnight to GeneBind 45 nylon membrane (Pharmacia LKB, Piscataway, N.J.) using standard methods. […] RNA was UV-crosslinked to the membrane. Double-stranded ^32 P-labeled probes were synthesized using the Prime a Gene labeling kit (Promega, Madison Wis.). The ras probe was a SalI-NheI fragment of a cDNA clone of the activated (mutant) H-ras mRNA having a GGC-to-GTC mutation at codon-12. The control probe was G3PDH. Blots were prehybridized for 15 Minutes at 68° C. with the QuickHyb hybridization solution (Stratagene, La Jolla, Calif.). The heat-denatured radioactive probe (2.5×10^6 counts/2 ml hybridization solution) mixed with 100 μl of 10 Mg/ml salmon sperm DNA was added and the membrane was hybridized for 1 hour at 68° C. The blots were washed twice for 15 minutes at room temperature in 2× SSC/0.1% SDS and once for 30 minutes at 60° C. with 0.1XSSC/0.1%SDS. Blots were autoradiographed and the intensity of signal was quantitated using an ImageQuant PhosphorImager (Molecular Dynamics, Sunnyvale, Calif.). Northern blots were first hybridized with the ras probe, then stripped by boiling for 15 Minutes in 0.1× SSC/0.1%SDS and rehybridized with the control G3PDH probe to check for correct sample loading.

[7] = test system: T24 cancer cells; assay: Inhibition of proliferation of cancer cells; type: cell-based, human
Method: Cells were seeded on 60 mm plates and were treated with oligonucleotide in the presence of DOTMA when they reached 70% confluency. Time course experiment: On day 1, cells were treated with a single dose of oligonucleotide at a final concentration of 100nM. The growth medium was changed once on day 3 and cells were counted every day for 5 days, using a counting chamber.

[8] = HeLa cell extract, 37° C.
Method: Oligonucleotides were incubated in crude HeLa cellular extracts at 37° C. to determine their sensitivity to nuclease degradation as described in Dignam et al., Nucleic Acids Res. 1983, 11, 1475-1489.

[9] = test system: mutant (activated, codon 12) H-ras RNA, ras-luciferase fusion reporter in HeLa cells; assay: ras-luciferase reporter gene assay, mutant form
[10] = test system: 25-mer oligoribonucleotide complement (H-ras codon 12 RNA target); assay: Melting curves, hybridization to 25-mer RNA target; type: binding, human
Method: Absorbance vs temperature curves were measured at 260 nm using a Gilford 260 spectrophotometer interfaced to an IBM PC computer and a Gilford Response II spectrophotometer. The buffer contained 100 mM Na^+, 10 mM phosphate and 0.1 mM EDTA, pH 7. Oligonucleotide concentration was 4 μM each strand determined from the absorbance at 85° C. and extinction coefficients calculated according to Puglisi and Tinoco, Methods in Enzymol. 1989, 180, 304-325. Tm values, free energies of duplex formation and association constants were obtained from fits of data to a two state model with linear sloping baselines. Petersheim, M. and Turner, D.H., Biochemistry 1983, 22, 256-263. Reported parameters are averages of at least three experiments. For some oligonucleotides, free energies of duplex formation were also obtained from plots of Tm^-1 vs log10 (concentration). Borer, P.N., Dengler, B., Tinoco, I., Jr., and Uhlenbeck, O.C., J. Mol. Biol., 1974, 86, 843-853.

Sequence | ability to direct RNase H cleavage [1] | binding to the hairpin target ([2]; listed as full 2'--O--methyl 17-mer) | IC50 [3] [nM] | IC50 [4] [nM] | inhibition of ras expression [5] | inhibition of ras expression [6] | inhibition of ras mRNA [6] [%] | inhibition of T24 cell proliferation relative to HeLa cells ([7]; 100 nM oligonucleotide concentration) | inhibition of cell proliferation ([7]; T24 cells) [%] | IC50 ([7]; T24 cells, dose-response, counted 3 days later, read-out: IC50, cell proliferation) [nM] | degradation [8] | binding to the hairpin target ([2]; listed as full deoxy 17-mer) | selectivity for inhibition of mutant ras-luciferase relative to wild type ([9]; 100 nM oligonucleotide) | selectivity toward the mutant form of ras-luciferase as compared to the normal form ([9]; at low concentrations) | selectivity, mutant over wild type ([9]; dose-dependent experiment, FIG. 8) [fold] | IC50 ([9]; read-out: IC50, inhibition of ras-luciferase activity, mutant ras-luciferase, dose-response) [nM] | selectivity toward the mutated form of ras-luciferase ([9]; single dose 0.5 μM) | Tm ([10]; Table 5, 2'-modified 17-mer with 7-deoxy gap, 25-mer oligoribonucleotide complement) [°C] | ΔΔG°37 ([10]; free energy difference between hybridization to mutant target and to wild type target)
CCACACCGACGGCGCCC (chemistry not given here) [compound 4122] | no cleavage was observed | formed the most stable duplex |  |  |  |  |  |  |  |  |  |  |  |  |  |  |  |  | 
CCACACCGACGGCGCCC [2570] (phosphorothioate, further chemistry not given here) [compound 2570] |  |  | 150 | ~250 | did not inhibit ras expression in HeLa cells | inhibited ras expression in T24 cells; also recorded: decreased ras mRNA levels in T24 cells | 82 | four times as severe | 61 | 98 | no degradation after 5 hours | formed the least stable duplex | approximately 4 fold | approximately threefold | 5 | ~100 | displayed selectivity toward the mutated form of ras-luciferase | 64.2 | +1.8 kcal/mole
